Measurements reported in patent publication US20100298371A1, “PROCESS FOR PREPARING CHEMICALLY AND CHIRALLY PURE SOLIFENACIN BASE AND ITS SALTS” (priority 2007, published 2010).
Counter-ions that a name gives are not always drawn. Like-named read-outs stand apart in the source and are kept apart here.

How the values were obtained:
[1] = Pharmacokinetic profile of Solifenacin salts in fasted male Wistar rats; format: in vivo; conditions: for absorption / rate of absorption: compared to the succinate salt
[2] = Intrinsic dissolution rate of various salts of Solifenacin; format: physicochemical
[3] = Stability study on storage (40° C. ± 2° C./75% ± 5% RH); format: physicochemical
Procedure: The complete x-ray powder spectrum, was recorded with a Rigaku D/Max 2200 VPC X-ray powder diffractometer model using copper radiation. The X-ray diffraction pattern was recorded by keeping the instrument parameters as below: • X-ray: Cu/40 kv/30 mA, Diverging slit: 1°, Scattering slit: 1°, Receiving slit: 0.15 mm, Monochromator RS: 0.8 mm, Counter: Scintillation counter,
Solifenacin base and its salts were analyzed for purity by analytical HPLC at λ^max 220 nm using column J'sphere-ODS, 150 mm×4.6 mm×4μ or its equivalent on AGILENT 1100 series under the following conditions, • Detector: UV absorption photometer Wave length: 220 nm Column temp.: 30° C. • Flow rate: 1.0 mL/min. Injection Vol.: 5 μL • Mobile Phase (gradient elution): 0.05 TFA buffer in water:Acetonitrile
Several of the Solifenacin salts prepared according to the present invention has chemical and polymorphic stability on storage.

[4] = Table 3b, fasted male Wistar rats, dose 30 mg/kg, mean, hydrochloride salt
[5] = After 3 Month at 40° C. ± 2° C./75% ± 5% RH
[6] = Table 3b, fasted male Wistar rats, dose 30 mg/kg, mean
[7] = Table 3a, fasted male Wistar rats, dose 30 mg/kg, mean
[8] = fasted male Wistar rats, ratio to succinate
[9] = Table 3b, fasted male Wistar rats, dose 30 mg/kg, mean, succinate salt

Compound	Description [3, 5]	Polymorphism XRD [3, 5]	Purity (By HPLC) [3, 5]	Water (by KFR) [3, 5]	Description ([3]; Initial)	Polymorphism XRD ([3]; Initial)	Purity (By HPLC) ([3]; Initial)	Water (by KFR) ([3]; Initial)	AUC (0-inf) [1, 6]	AUC (0-t) [1, 6]	Cmax [1, 6]	Kel [1, 6]	T1/2 [1, 6]	Tmax [1, 6]	other results
O=C(O[C@H]1CN2CCC1CC2)N1CCc2ccccc2[C@@H]1c1ccccc1 [Solifenacin Hydrochloride, (+)-(1S,3′R)-quinuclidin-3′-yl 1-phenyl-1,2,3,4-tetrahydro-isoquinoline-2-carboxylate hydrochloride salt]	Off white colored	No Change	99.6%	0.32%	Off white colored powder	Crystalline pattern	99.54%	0.14%							AUC (0-inf) [1, 4]: 59.52 ng·h/mL; AUC (0-t) [1, 4]: 50.54 ng·h/mL; Cmax [1, 4]: 13.67 ng/mL; Tmax [1, 4]: 1.05 h; AUC (0-inf) ([1]; male, Wistar, rat, plasma, 30 mg/kg, Table 3a, fasted male Wistar rats, dose 30 mg/kg, mean, read-out: AUC (0-inf)): 158 ng·h/mL; AUC (0-t) ([1]; male, Wistar, rat, plasma, 30 mg/kg, Table 3a, fasted male Wistar rats, dose 30 mg/kg, mean, read-out: AUC (0-t)): 147 ng·h/mL; Cmax ([1]; male, Wistar, rat, plasma, 30 mg/kg, Table 3a, fasted male Wistar rats, dose 30 mg/kg, mean, read-out: Cmax): 94.4 ng/mL; Tmax ([1]; male, Wistar, rat, plasma, 30 mg/kg, Table 3a, fasted male Wistar rats, dose 30 mg/kg, mean, read-out: Tmax): 0.6 h; Vd ([1]; rat, plasma, Table 3a, fasted male Wistar rats, dose 30 mg/kg, mean, read-out: Vz): 1530 L; Intrinsic dissolution rate ([2]; pH 1.2 HCl, listed as HCl, hydrochloride salt): 6.6836 mg/min · cm^2; Intrinsic dissolution rate ([2]; pH 4.5 Acetate Buffer, listed as HCl, hydrochloride salt): 21.08 mg/min · cm^2; Intrinsic dissolution rate ([2]; pH 6.8 Phosphate Buffer, listed as HCl, hydrochloride salt): 20.262 mg/min · cm^2
O=C(O[C@H]1CN2CCC1CC2)N1CCc2ccccc2[C@@H]1c1ccccc1 [Solifenacin Hydrobromide, Solifenacin hydrobromide]															Tmax ([1]; Table 3b, fasted male Wistar rats, dose 30 mg/kg, mean, hydrobromide): 1.27 h; AUC (0-inf) ([1]; male, Wistar, rat, plasma, 30 mg/kg, Table 3b, fasted male Wistar rats, dose 30 mg/kg, mean, read-out: AUC (0-inf)): 74 ng·h/mL; AUC (0-t) ([1]; male, Wistar, rat, plasma, 30 mg/kg, Table 3b, fasted male Wistar rats, dose 30 mg/kg, mean, read-out: AUC (0-t)): 59.9 ng·h/mL; Cmax ([1]; male, Wistar, rat, plasma, 30 mg/kg, Table 3b, fasted male Wistar rats, dose 30 mg/kg, mean, read-out: Cmax): 14.1 ng/mL
(+)-(1S,3′R)-quinuclidin-3′-yl 1-phenyl-1,2,3,4-tetrahydro-isoquinoline-2-carboxylate besylate salt [Solifenacin Besylate]									49.27 ng·h/mL	45.54 ng·h/mL	12.84 ng/mL	0.36 h⁻¹	1.95 h	1.73 h	
O=C(O)c1cc(O)ccc1O.O=C(O[C@H]1CN2CCC1CC2)N1CCc2ccccc2[C@@H]1c1ccccc1 [Solifenacin Gentisate, (+)-(1S,3′R)-quinuclidin-3′-yl 1-phenyl-1,2,3,4-tetrahydro-isoquinoline-2-carboxylate gentisate salt]	Off white colored	No Change	99.46%	0.29%	Off white colored powder	Crystalline pattern	99.63%	0.16%	74.19 ng·h/mL	58.97 ng·h/mL	30.66 ng/mL			1.70 h	AUC (0-inf) [1, 7]: 74.19 ng·h/mL; AUC (0-t) [1, 7]: 58.97 ng·h/mL; Cmax [1, 7]: 30.66 ng/mL; Tmax [1, 7]: 1.70 h; peak plasma concentrations compared with Solifenacin succinate ([1]; in words): comparable; Intrinsic dissolution rate ([2]; pH 1.2 HCl): 6.845 mg/min · cm^2; Intrinsic dissolution rate ([2]; pH 4.5 Acetate Buffer): 0.2356 mg/min · cm^2; Intrinsic dissolution rate ([2]; pH 6.8 Phosphate Buffer): 0.4932 mg/min · cm^2
Solifenacin phosphate									57.63 ng·h/mL	50.58 ng·h/mL	12.63 ng/mL	0.29 h⁻¹	2.43 h	1.00 h	
(+)-(1S,3′R)-quinuclidin-3′-yl 1-phenyl-1,2,3,4-tetrahydro-isoquinoline-2-carboxylate oxalate salt [Solifenacin Oxalate]	Off white colored	No Change	99.36%	0.33%	Off white colored powder	Crystalline pattern	99.49%	0.18%	78.78 ng·h/mL	49.77 ng·h/mL	9.10 ng/mL	0.18 h⁻¹	6.19 h	1.62 h	AUC (0-inf) [1, 7]: 345.79 ng·h/mL; AUC (0-t) [1, 7]: 321.28 ng·h/mL; Cmax [1, 7]: 252.38 ng/mL; Kel [1, 7]: 0.26 h⁻¹; T1/2 [1, 7]: 4.76 h; Tmax [1, 7]: 0.37 h; higher plasma concentration (Bio available, Cmax) compared to Solifenacin succinate salt [1, 8]: ~10 fold; higher plasma exposure compared to Solifenacin succinate salt [1, 8]: 5 times; T1/2 value compared to the succinate salt ([1]; in words): higher; absorption / rate of absorption ([1]; in words): rapid absorption; Intrinsic dissolution rate ([2]; pH 1.2 HCl): 6.5822 mg/min · cm^2; Intrinsic dissolution rate ([2]; pH 4.5 Acetate Buffer): 6.5084 mg/min · cm^2; Intrinsic dissolution rate ([2]; pH 6.8 Phosphate Buffer): 4.9096 mg/min · cm^2
O=C(O[C@H]1CN2CCC1CC2)N1CCc2ccccc2[C@@H]1c1ccccc1.O=C1O[C@H]([C@@H](O)CO)C(O)=C1O [Solifenacin Ascorbate]									96.99 ng·h/mL	85.66 ng·h/mL	29.04 ng/mL			1.30 h	absorption / rate of absorption ([1]; in words): faster; better absorption than the succinate salt ([1]; relative to succinate): 20%
O=C(O[C@H]1CN2CCC1CC2)N1CCc2ccccc2[C@@H]1c1ccccc1 [Solifenacin Succinate, (+)-(1S,3′R)-quinuclidin-3′-yl 1-phenyl-1,2,3,4-tetrahydro-isoquinoline-2-carboxylate succinate salt, reference compound]															AUC (0-inf) [1, 9]: 76.69 ng·h/mL; AUC (0-t) [1, 9]: 60.09 ng·h/mL; Cmax [1, 9]: 23.72 ng/mL; Tmax [1, 9]: 2.67 h; Tmax (absorption, as stated in text) ([1]; text summary of Table 3b, fasted male Wistar rats, succinate salt): 6.67 h; Intrinsic dissolution rate ([2]; pH 1.2 HCl, succinate salt): 10.666 mg/min · cm^2; Intrinsic dissolution rate ([2]; pH 4.5 Acetate Buffer, succinate salt): 9.845 mg/min · cm^2; Intrinsic dissolution rate ([2]; pH 6.8 Phosphate Buffer, succinate salt): 11.002 mg/min · cm^2
